{"source": "patent EP0574185B1", "about": "“PGE1 analogs” (NEWPHARMA INTERNATIONAL CORPORATION, priority 1992, dated 1993)", "key": {"platelets": {"test_system": "platelets", "conditions": "background statement; cited from earlier work"}, "patients": {"test_system": "patients", "conditions": "three or four suppositories of 1 mg at regular intervals; various studies; cited from earlier work"}, "Swiss male mice": {"test_system": "Swiss male mice", "test": "Motor activity in mice (rota-rod)", "conditions": "5 mg/kg, i.p. (table); positive control"}}, "data": [{"compound": "CCCCC[C@H](O)/C=C/[C@H]1C(=O)C[C@H](O)[C@@H]1C/C=C\\CCCC(=O)O", "note": "[PGD2]", "values": [{"measurement": "concentration that inhibits platelets aggregation \"in vitro\"", "setting": "platelets", "result": 0.1, "unit": "µM"}]}, {"compound": "CCCCC(C)(C)[C@H](O)/C=C/[C@H]1[C@H](O)CC(=O)[C@@H]1CCCC/C=C/C(=O)OC", "note": "(relative stereo) [gemeprost, 16,16-dimethyl-trans-Δ^2-PGE1 methyl ester]", "values": [{"measurement": "complete abortions (% of the patients)", "setting": "patients", "result": "more than 90%"}]}, {"compound": "CN1C(=O)CN=C(c2ccccc2)c2cc(Cl)ccc21", "note": "[Diazepam, reference compound]", "values": [{"measurement": "Fraction (animals fallen before 300 sec/total number of animals)", "setting": "Swiss male mice", "result": "8/10"}]}, {"compound": "CCCCC[C@H](O)/C=C/[C@H]1[C@H](O)CC(=O)[C@@H]1CCCCCCC(=O)O", "note": "[PGE1]", "values": [{"measurement": "concentration that inhibits platelets aggregation \"in vitro\"", "setting": "platelets", "result": 0.1, "unit": "µM"}]}]}
